# Data from patent publication US20050081267A1, “Novel genes for conditional cell ablation” (Bayer Bioscience N.V., priority 2001, published 2005).
# Experiments:
# [1] = test system: leaves of the transgenic plants (Tobacco, Nicotiana tabacum) expressing ArgJ coding sequence under 35S promoter; assay: Drop experiment on leaves of 35S-ArgJ transgenic tobacco plants; format: in vivo; details: 5 μl drops; dose of 4 mg/ml or 1 mg/ml; apparent 4 to 5 days after treatment; seven independent p35SARG transformants
# From the text: The ArgJ coding sequence was recloned into the binary vector pROK1 under control of the Cauliflower Mosaic Virus 35S promoter sequence. The resulting plasmid p35SARG comprising the 35S promoter, ArgJ coding sequence and 35S terminator was transformed in Agrobacterium tumefaciens (strain ATHV) using standard methods. Tobacco (Nicotiana tabacum) leaf disks were transformed with the recombinant Agrobacteria according to the method of Horsch et al. (1985, Science 227:1229-1231) and selected on kanamycin medium. Seven independent transformants were regenerated. In a drop experiment, the leaves of the transgenic plants (and a number of control plants) were treated with 5 μl each of the following concentrations of N-acetyl- D, L-PPT: 4 mg/ml (=15 mM), 1 mg/ml (=3.75 mM), 0.4 mg/ml (=1.5 mM), 0.1 mg/ml (=0.38 mM). The treatment sites were examined for lightening or necrosis formation.
# [2] = test system: flower buds of the transgenic lines (Tobacco, Nicotiana tabacum) expressing ArgJ deacetylase under TA29 promoter; assay: Flower bud treatment to induce male-sterile flowers in TA29-ArgJ transgenic tobacco; format: in vivo; details: 10 μl of 5 mg/ml solution (0.1% Genapol)
# From the text: The ArgJ coding sequence was recloned into the binary vector pROK1 under control of the TA29 promoter of tobacco. The resulting plasmid pTA29ARG comprising the TA29 promoter, ArgJ coding sequence and 35S terminator was transformed in Agrobacterium tumefaciens (strain ATHV) using standard methods. Tobacco (Nicotiana tabacurn) leaf disks were transformed with the recombinant Agrobacteria according to the method of Horsch et al. (1985, above) and selected on kanamycin medium.
# To investigate tapetum-specific expression of the ArgJ deacetylase, flower buds of the transgenic lines were treated with N-acetyl-PPT to induce male-sterile flowers.
# In each case only one side of the inflorescence ([…] of the developing flower bud) was treated with N-acetyl PPT, in order to eliminate possible contamination with natural male-sterility phenomena. Treatment was carried out on flower buds of 2 to 4 mm large. Transgenic and control plants were treated with 10 μl of 5 mg/ml N-acetyl PPT solution (0.1% Genapol as wetting agent). After the blooming of the buds (about 9-11 days after conclusion of the treatment) the plants were investigated for the occurrence of male-sterile flowers.
smiles,measurement,setting,value
"CC(=O)NC(CCP(C)(=O)O)C(=O)O [N-acetyl- D, L-PPT, N-acetyl-phosphinothricin]",lightening or necrosis formation at treatment sites (leaf damage),[1],Four plants showed clearly visible leaf damage
same,"occurrence of male-sterile flowers, control or wild-type tobacco flowers",[2]; control and wild-type plants,no reaction was seen
same,"occurrence of male-sterile flowers from drop-treated flowerbuds, transgenic plants","[2]; flower buds 2 to 4 mm, examined about 9-11 days after treatment, pTA29ARG transgenic plants","In three out of seven transgenic plants, male-sterile flowers developed"
